Data published in ChEMBL document CHEMBL1150484, “Structure-based design of achiral anthranilamides as P2/P2 surrogates for symmetry-based HIV protease inhibitors: design, synthesis, X-ray structure, enzyme inhibition and antiviral activity” (Bioorg Med Chem Lett, 1995).

Tests used:
[1] = Partition coefficient (logP); format: physicochemical; conditions: octanol/water
[2] = molecular target: T1, Human immunodeficiency virus type 1 protease (Human immunodeficiency virus 1, UniProt Q72874); assay: Tested for inhibition of HIV protease using fluorogenic substrate; insoluble
[3] = molecular target: T1, Human immunodeficiency virus type 1 protease; assay: Tested for inhibition of HIV protease using fluorogenic substrate
[4] = Tested for cytotoxicity in HIV-1 infected human T-lymphocyte cell culture; format: functional; conditions: read-out: TC50 (the source's name)
CCRF-CEM = assay: Concentration required to produce 50 percent inhibition of HIV-1 infection in CEM cells; format: functional, cell-based; conditions: Homo sapiens

Ki [2]	logP [1]	Compound	logP ([1]; read-out: logP)	Ki [3] [nM]	CC50 [4] [nM]	EC50 (CCRF-CEM) [nM]
Insoluble		CCOC(=O)Nc1ccccc1C(=O)N[C@@H](Cc1ccccc1)[C@H](O)[C@H](O)[C@H](Cc1ccccc1)NC(=O)c1ccccc1NC(=O)OCC	6.14			
		Cc1nccnc1C(=O)Nc1ccccc1C(=O)N[C@@H](Cc1ccccc1)[C@H](O)[C@H](O)[C@H](Cc1ccccc1)NC(=O)c1ccccc1NC(=O)c1nccnc1C	5.66	> 10000		
		O=C(COCc1ccccc1)Nc1ccccc1C(=O)N[C@@H](Cc1ccccc1)[C@H](O)[C@H](O)[C@H](Cc1ccccc1)NC(=O)c1ccccc1NC(=O)COCc1ccccc1	6.91	> 10000		
		O=C(Nc1ccccc1C(=O)N[C@@H](Cc1ccccc1)[C@H](O)[C@H](O)[C@H](Cc1ccccc1)NC(=O)c1ccccc1NC(=O)OCc1ccccn1)OCc1ccccn1	6.49		35000	13
	9.34	O=C(Nc1c(Cl)cccc1C(=O)N[C@@H](Cc1ccccc1)[C@H](O)[C@H](O)[C@H](Cc1ccccc1)NC(=O)c1cccc(Cl)c1NC(=O)OCc1ccccc1)OCc1ccccc1				
		O=C(Nc1c(O)cccc1C(=O)N[C@@H](Cc1ccccc1)[C@H](O)[C@H](O)[C@H](Cc1ccccc1)NC(=O)c1cccc(O)c1NC(=O)OCc1ccccc1)OCc1ccccc1	7.96			
		O=C(Nc1ccccc1C(=O)N[C@@H](Cc1ccccc1)C[C@H](O)[C@H](Cc1ccccc1)NC(=O)c1ccccc1NC(=O)OCc1cccnc1)OCc1cccnc1	5.86	0.26		140
		O=C(Nc1ccccc1C(=O)N[C@@H](Cc1ccccc1)[C@H](O)[C@H](O)[C@H](Cc1ccccc1)NC(=O)c1ccccc1NC(=O)OCc1ccccc1)OCc1ccccc1	8.16			> 100000
		O=CNc1ccccc1C(=O)N[C@@H](Cc1ccccc1)[C@H](O)[C@H](O)[C@H](Cc1ccccc1)NC(=O)c1ccccc1NC=O	4.89	1.2		900
		O=C(Nc1ccccc1C(=O)N[C@@H](Cc1ccccc1)C[C@H](O)[C@H](Cc1ccccc1)NC(=O)c1ccccc1NC(=O)OCc1ccncc1)OCc1ccncc1	5.39	0.45		2600
		O=C(CO)Nc1ccccc1C(=O)N[C@@H](Cc1ccccc1)[C@H](O)[C@H](O)[C@H](Cc1ccccc1)NC(=O)c1ccccc1NC(=O)CO	2.52	20		60000
		CC(=O)Nc1ccccc1C(=O)N[C@@H](Cc1ccccc1)[C@H](O)[C@H](O)[C@H](Cc1ccccc1)NC(=O)c1ccccc1NC(C)=O	4.32			> 100000
		O=C(Nc1ccccc1C(=O)N[C@@H](Cc1ccccc1)C[C@H](O)[C@H](Cc1ccccc1)NC(=O)c1ccccc1NC(=O)OCc1ccccn1)OCc1ccccn1	6.61	0.07	> 50000	56
	9.24	Cc1cccc(C(=O)N[C@@H](Cc2ccccc2)[C@H](O)[C@H](O)[C@H](Cc2ccccc2)NC(=O)c2cccc(C)c2NC(=O)OCc2ccccc2)c1NC(=O)OCc1ccccc1				
		O=C(Nc1ccccc1C(=O)N[C@@H](Cc1ccccc1)C[C@H](O)[C@H](Cc1ccccc1)NC(=O)c1ccccc1NC(=O)OCc1ccccc1)OCc1ccccc1	8.28			
		O=C(Nc1ncccc1C(=O)N[C@@H](Cc1ccccc1)[C@H](O)[C@H](O)[C@H](Cc1ccccc1)NC(=O)c1cccnc1NC(=O)OCc1ccccc1)OCc1ccccc1	7.87			
